{
  "source": "patent US20040232089A1",
  "about": "“Biocidal compounds for treating water” (VANETTA S.p.A., priority 2003, published 2004)",
  "key": {"[1]": {"tested_on": "Tigriopus fulvus", "test": "Copepods efficacy test", "assay_type": "in vivo", "settings": "Tigriopus fulvus nauplii", "protocol": "For that, efficacy test was carried out by using Tigriopus fulvus, it is a shallow-water marine species (Crustacea, Copepoda, Harpactico.da) characterized by […], all variously deep-orange coloured: five nauplius substages and five copepodid substages. Nauplii have a subcircular shape, are characterized by a single red eye, and develop within 6 to 7 days. Copepods are recognisable because of their abdominal segment formation, although the last substage is difficult to distinguish from the adult female at the end of the 7-day development period. Adult sizes range from 0.8 to 1.0 mm for males and from 1.0 to 1.2 mm for females. Sexual dimorphism is detectable only by the pincer shape of antenna 1, whereas ovigerous females can quickly be recognized because of their large egg sacs. T. fulvus is a vector for the transport of Vibrio spp; it is well documented that the persistence of V. cholerae in the aquatic environment is facilitated by its ability to colonize various substrates, including zooplankton surfaces (i.e., copepods).\nCopepods, sampled in their natural habitat, have been moved through suitable containers to the laboratory, where they were subjected to a specific treatment. They were first filtered through a […] mesh, then washed with sterile sea-water and transferred to small 3 litres aquaria, with natural filtered (0.22 μm) sea water, T=20+0,5° C. Copepods were fed with microalgae (Chlorella spp, Tetraselmis suecica) and commercial yeast (Saccharomices spp). After the acclimatization period (one month), about 500 females were chosen and separated. The naupliar stage was then used for the efficacy test. […] Nauplii were used 24 hours after their hatching, multiwell plates (25 wells) were used for these tests, about 15 individuals for each well. Each concentration was performed in six replicates, plates were kept at dark, at 20° C."}, "[2]": {"test": "Hydrolysis test carried out in the dark", "assay_type": "physicochemical", "excerpt": "From the hydrolysis test carried out in the dark, MNB and MPB appear to be readily degradable at a pH compatible with environmental conditions."}, "[3]": {"tested_on": "Chlorella sp.", "test": "Inhibition of planktonic microalgae duplication", "assay_type": "cell-based", "settings": "after 96 hours of treatment", "protocol": "This test was carried out by using the microalga Chlorella sp., it is a small (2-10 microns diameter) green single celled microalga with a spherical cell shape. This genus is capable of both autotrophic and heterotrophic growth which may contribute to its ability to rapidly overtake other algae in culture. In laboratory, Chlorella coltures are started by taking from the branchs, inoculates basis, about 10 ml of monospecific colture, and adding 700 ml of […] filtered sea-water, enriched with Walne colture medium and vitamins.\nFlasks with algae are kept in a thermostatic room, at 20° C.±0,5; lighting is supplied by 30 watt fluorescent neon tubes and by a 18 watt Osram-fluora lamp, with a photoperiod 16:8 light:dark. Oxygenation is warranted by a continuous air flux in the flask, this is also a way to avoid cells sedimentation. Test was carried out in the thermostatic room, at 20° C., with a 16:8 light:dark cycle in glass test-tube. The tested product has been dissolved in the culture medium, at a double concentration respect to the final wanted. […] Test-tubes were aerated, and kept in thermostatic room for 96 hours; after this period of time an aliquot of each replicate for each concentration was taken, and cellular densities were counted using an haemocytometer."}, "[4]": {"tested_on": "Balanus amphitrite nauplii", "test": "Barnacle efficacy test", "assay_type": "in vivo", "protocol": "This efficacy tests was carried out by using Balanus amphitrite nauplii (Crustacea: Cirripedia). Specimens of this organism are collected in nature, and then maintained and reared in our laboratories, following a standard methodology. Adult organisms regularly produce larvae at the second naupliar stage, characterized by the typical triangular carapace, with a shield shape. […] Stage II nauplii have been used; immediately after their emission from adults larvae were divided and put in a beaker with […] filtered natural sea-water."}, "[5]": {"tested_on": "Bacillus subtilis ATCC 10774", "test": "Disk diffusion test (Kirby-Bauer)", "assay_type": "cell-based", "settings": "100 μg MNB disk, 24 hours in the dark", "protocol": "(§1) a) Kirby-Bauer assay was carried out after 24 hours in the dark.\n(§2) In the disk diffusion susceptibility test, paper disks containing known amounts of MNB are placed on the surface of an agar plate that has been inoculated confluently with a standardized suspension of an indicator bacterial strain. The antimicrobial agent diffuses into the medium causing a zone of inhibition of growth of the strain around the disk corresponding to the susceptibility of the strain to that agent. Interpretative zone diameters have been established to permit classifying an isolate as belonging to the susceptible, intermediate resistance, or resistant categories of susceptibilities to an antimicrobial agent.\n(§3) The disk diffusion method on agar plates was used to assess the biocide efficacy of a single concentration of MNB ([…]) against four aerobic quality control strains (Pseudomonas aeruginosa ATCC10145, Pseudomonas elongata NCIMB 1141, Bacillus subtilis ATCC 10774 and Staphylococcus aureus ATCC 25923).\n(§4) Test results are summarised in Table 5 and represent the size of the inhibition halos in millimetres after contact with 100 μg MNB (Disk diffusion method)."}, "[6]": {"tested_on": "Staphylococcus aureus ATCC 25923", "test": "Disk diffusion test (Kirby-Bauer)", "assay_type": "cell-based", "settings": "100 μg MNB disk, 24 hours in the dark", "protocol": "as §1, §2, §3, §4"}, "[7]": {"tested_on": "Pseudomonas aeruginosa ATCC 10145", "test": "Disk diffusion test (Kirby-Bauer)", "assay_type": "cell-based", "settings": "100 μg MNB disk, 24 hours in the dark", "protocol": "as §1, §2, §3, §4"}, "[8]": {"tested_on": "Pseudomonas elongata NCIMB 1141", "test": "Disk diffusion test (Kirby-Bauer)", "assay_type": "cell-based", "settings": "100 μg MNB disk, 24 hours in the dark", "protocol": "as §1, §2, §3, §4"}},
  "data": [
    {"smiles": "CC1(S(=O)(=O)O)CC(=O)c2ccccc2C1=O.NC(=O)c1cccnc1", "note": "(stereo not shown) [MNB, menadione nicotinamide bisulphite]", "values": [
      {"measurement": "LC50", "setting": "[1]; 24 hours", "result": 0.156, "unit": "µg/mL"},
      {"measurement": "LC50", "setting": "[1]; 48 hours", "result": 0.071, "unit": "µg/mL"},
      {"measurement": "LC50", "setting": "[1]; 72 hours", "result": 0.039, "unit": "µg/mL"},
      {"measurement": "½ LIFE (hydrolysis)", "setting": "[2]; pH 6, 8, in the dark", "result": 48, "unit": "h"},
      {"measurement": "½ LIFE (hydrolysis)", "setting": "[2]; pH 9, in the dark", "result": "<3", "unit": "h"},
      {"measurement": "LC1", "setting": "[3]", "result": 0.002, "unit": "mg/L"},
      {"measurement": "LC50", "setting": "[3]", "result": 0.055, "unit": "µg/mL"},
      {"measurement": "LC50", "setting": "[4]; 24 hours", "result": 0.228, "unit": "µg/mL"},
      {"measurement": "LC50", "setting": "[4]; 48 hours", "result": 0.222, "unit": "µg/mL"},
      {"measurement": "size of the inhibition halos", "setting": "[5]", "result": 0, "unit": "mm"},
      {"measurement": "size of the inhibition halos", "setting": "[6]", "result": 20, "unit": "mm"},
      {"measurement": "size of the inhibition halos", "setting": "[7]", "result": 0, "unit": "mm"},
      {"measurement": "size of the inhibition halos", "setting": "[8]", "result": 20, "unit": "mm"}
    ]}
  ]
}
